Measurements: ChEMBL document CHEMBL3137667, “[Drug-induced liver injury; fourteenth updated edition of the bibliographic database of liver injuries and related drugs]” (Gastroenterol Clin Biol, 2004)

Legend:
[1] = Highest frequency of moderate liver toxicity observed during clinical trials, expressed as a percentage. [column '% BIOL' in source]; settings: human
[2] = Highest frequency of acute liver toxicity observed during clinical trials, expressed as a percentage. [column '% AIGUE' in source]; settings: human
[3] = Times to onset, minimal and maximal, observed in the indexed observations. [column 'DELAI' in source]; settings: human
[4] = Proposed mechanism(s) of liver damage. [column 'MEC' in source]; settings: human
[5] = human, serum
[6] = human, serum; remark: listed apart in the source
[7] = human
[8] = human; remark: listed apart in the source
[9] = human; remark: listed apart in the source
[10] = human, serum, 4383 h
[11] = human; remark: listed apart in the source
[12] = human; remark: listed apart in the source
[13] = human; remark: listed apart in the source
[14] = human; remark: listed apart in the source
[15] = human; remark: listed apart in the source
[16] = human; remark: listed apart in the source
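Throughout, for Hepatotoxicity (association with vascular disease): count of indexed literature references reporting vascular liver injury in humans, e.g. peliosis hepatitis, hepatic veno-occlusive disease or Budd-Chiari syndrome.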
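Throughout, for Hepatotoxicity (benign tumour): value is a count of indexed literature references citing a benign tumour confirmed by histopathology.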
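Throughout, for Hepatotoxicity (choleostasis): human cholestatic liver injury, shown by histopathology or by peak ALT or AST elevation over alkaline phosphatase ratio below 2, value counts indexed literature reports.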
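Throughout, for Hepatotoxicity (chronic liver disease): chronic liver injury confirmed by histopathology or persistently raised serum aminotransferase activity beyond 6 months, value given as the count of indexed literature references.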
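Throughout, for Hepatotoxicity (cirrhosis): value is a count of indexed literature references reporting cirrhosis confirmed by histopathology.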
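Throughout, for Hepatotoxicity (cytolytic): human cytolytic liver injury, shown by histopathology or by a ratio above 5 of peak ALT or AST elevation to alkaline phosphatase elevation, value counts indexed references.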
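Throughout, for Hepatotoxicity (granulomatous hepatitis): value is a count of indexed literature references reporting granulomatous liver disease confirmed by histopathology.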
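Throughout, for Hepatotoxicity (malignant tumour): malignant tumour confirmed by histopathology, value gives the count of indexed literature references reporting it.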
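Throughout, for Hepatotoxicity (severe hepatitis): human clinical data: severe hepatitis, meaning potentially life-threatening liver failure or clinically observed cases, the value counts how many indexed literature references report it.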
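Throughout, for Hepatotoxicity (steatosis): steatosis confirmed by histopathology, value is the count of indexed references.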

In the case of `O=C(O)c1ccccc1O.O=C(O)c1ccccc1O.O=C(O)c1ccccc1O`, the “Hepatotoxicity (moderate)” value ([1]; Liver) is reported as 0%, the “Hepatotoxicity (acute)” value ([2]; Liver) is reported as 0% and the “Hepatotoxicity (time to onset)” value [3] is reported as 3 days. For the same compound, the “Hepatotoxicity (mechanism)” value ([4]; Liver) was “Allergic”, the “Hepatotoxicity (moderate)” value [5] was 0 and the “Hepatotoxicity (acute)” value [6] was 1. The “Hepatotoxicity (cytolytic)” value ([7]; Liver) was 1, the “Hepatotoxicity (choleostasis)” value ([8]; Liver) was 0 and the “Hepatotoxicity (severe hepatitis)” value ([9]; Liver) was 1. For the same compound, the “Hepatotoxicity (chronic liver disease)” value [10] was 0, the “Hepatotoxicity (cirrhosis)” value [11] was 0 and the “Hepatotoxicity (granulomatous hepatitis)” value ([12]; Liver) was 0. The “Hepatotoxicity (association with vascular disease)” value [13] was 0, the “Hepatotoxicity (steatosis)” value [14] was 0 and the “Hepatotoxicity (malignant tumour)” value [15] was 0. The “Hepatotoxicity (benign tumour)” value [16] was 0.
In the case of `O=C1CN=C(c2ccccc2Cl)c2cc([N+](=O)[O-])ccc2N1` [CLONAZEPAM], the “Hepatotoxicity (moderate)” value ([1]; Liver) is reported as 0%, the “Hepatotoxicity (acute)” value ([2]; Liver) is reported as 0% and the “Hepatotoxicity (time to onset)” value [3] is reported as 3 weeks - 4 months. The “Hepatotoxicity (mechanism)” value [4] was “Toxic Metabolite”, the “Hepatotoxicity (moderate)” value [5] was 0 and the “Hepatotoxicity (acute)” value [6] was 2. The “Hepatotoxicity (cytolytic)” value [7] was 2, the “Hepatotoxicity (choleostasis)” value [8] was 0 and the “Hepatotoxicity (severe hepatitis)” value ([9]; Liver) was 1. The “Hepatotoxicity (chronic liver disease)” value [10] was 0, the “Hepatotoxicity (cirrhosis)” value [11] was 0 and the “Hepatotoxicity (granulomatous hepatitis)” value [12] was 0. The “Hepatotoxicity (association with vascular disease)” value [13] was 0, the “Hepatotoxicity (steatosis)” value [14] was 0 and the “Hepatotoxicity (malignant tumour)” value [15] was 0. The “Hepatotoxicity (benign tumour)” value [16] was 0.
In the case of CARBOPLATIN, the “Hepatotoxicity (moderate)” value [1] is reported as 27%, the “Hepatotoxicity (acute)” value [2] is reported as 6.1% and the “Hepatotoxicity (time to onset)” value [3] is reported as 1 week. For the same compound, the “Hepatotoxicity (mechanism)” value [4] was “Dose-dependant”, the “Hepatotoxicity (moderate)” value [5] was 5 and the “Hepatotoxicity (acute)” value [6] was 1. For the same compound, the “Hepatotoxicity (cytolytic)” value [7] was 0, the “Hepatotoxicity (choleostasis)” value [8] was 1 and the “Hepatotoxicity (severe hepatitis)” value [9] was 1. The “Hepatotoxicity (chronic liver disease)” value [10] was 0, the “Hepatotoxicity (cirrhosis)” value [11] was 0 and the “Hepatotoxicity (granulomatous hepatitis)” value [12] was 0. For the same compound, the “Hepatotoxicity (association with vascular disease)” value [13] was 5, the “Hepatotoxicity (steatosis)” value [14] was 0 and the “Hepatotoxicity (malignant tumour)” value [15] was 0. For the same compound, the “Hepatotoxicity (benign tumour)” value [16] was 0.
In the case of `CNC(=O)c1c(I)c(C(=O)NCC(=O)Nc2c(I)c(C(=O)O)c(I)c(C(=O)NCCO)c2I)c(I)c(N(C)C(C)=O)c1I` [IOXAGLIC ACID], the “Hepatotoxicity (moderate)” value [1] is reported as 0%, the “Hepatotoxicity (acute)” value [2] is reported as 0% and the “Hepatotoxicity (time to onset)” value [3] is reported as 1 days. For the same compound, the “Hepatotoxicity (mechanism)” value [4] was “Allergic”, the “Hepatotoxicity (moderate)” value [5] was 0 and the “Hepatotoxicity (acute)” value [6] was 1. The “Hepatotoxicity (cytolytic)” value [7] was 1, the “Hepatotoxicity (choleostasis)” value [8] was 0 and the “Hepatotoxicity (severe hepatitis)” value [9] was 0. For the same compound, the “Hepatotoxicity (chronic liver disease)” value [10] was 0, the “Hepatotoxicity (cirrhosis)” value [11] was 0 and the “Hepatotoxicity (granulomatous hepatitis)” value [12] was 0. For the same compound, the “Hepatotoxicity (association with vascular disease)” value [13] was 0, the “Hepatotoxicity (steatosis)” value [14] was 0 and the “Hepatotoxicity (malignant tumour)” value [15] was 0. For the same compound, the “Hepatotoxicity (benign tumour)” value [16] was 0.
For `Cc1c(N(C)CS(=O)(=O)[O-])c(=O)n(-c2ccccc2)n1C.[Na+]` [DIPYRONE SODIUM], the “Hepatotoxicity (moderate)” value [1] was 0%, the “Hepatotoxicity (acute)” value [2] was 0% and the “Hepatotoxicity (time to onset)” value [3] was 2 hours - 18 days. The “Hepatotoxicity (mechanism)” value [4] was “Allergic”, the “Hepatotoxicity (moderate)” value [5] was 1 and the “Hepatotoxicity (acute)” value [6] was 3. The “Hepatotoxicity (cytolytic)” value [7] was 0, the “Hepatotoxicity (choleostasis)” value [8] was 0 and the “Hepatotoxicity (severe hepatitis)” value [9] was 0. For the same compound, the “Hepatotoxicity (chronic liver disease)” value [10] was 0, the “Hepatotoxicity (cirrhosis)” value [11] was 0 and the “Hepatotoxicity (granulomatous hepatitis)” value [12] was 0. The “Hepatotoxicity (association with vascular disease)” value [13] was 0, the “Hepatotoxicity (steatosis)” value [14] was 0 and the “Hepatotoxicity (malignant tumour)” value [15] was 0. For the same compound, the “Hepatotoxicity (benign tumour)” value [16] was 0.
In the case of `CCOC(=O)CN[C@@H](C(=O)N1CC[C@H]1C(=O)NCc1ccc(/C(N)=N\O)cc1)C1CCCCC1` [XIMELAGATRAN], the “Hepatotoxicity (moderate)” value [1] is reported as 9.8%, the “Hepatotoxicity (acute)” value [2] is reported as 6.8% and the “Hepatotoxicity (time to onset)” value [3] is reported as 1 month - 6 months. For the same compound, the “Hepatotoxicity (mechanism)” value [4] was “Dose-dependant”, the “Hepatotoxicity (moderate)” value [5] was 9 and the “Hepatotoxicity (acute)” value [6] was 3. For the same compound, the “Hepatotoxicity (cytolytic)” value [7] was 0, the “Hepatotoxicity (choleostasis)” value [8] was 0 and the “Hepatotoxicity (severe hepatitis)” value [9] was 0. The “Hepatotoxicity (chronic liver disease)” value [10] was 0, the “Hepatotoxicity (cirrhosis)” value [11] was 0 and the “Hepatotoxicity (granulomatous hepatitis)” value [12] was 0. For the same compound, the “Hepatotoxicity (association with vascular disease)” value [13] was 0, the “Hepatotoxicity (steatosis)” value [14] was 0 and the “Hepatotoxicity (malignant tumour)” value [15] was 0. For the same compound, the “Hepatotoxicity (benign tumour)” value [16] was 0.
In the case of `CC(O)CCC(=O)c1ccoc1` (stereo not given), the “Hepatotoxicity (moderate)” value [1] is reported as 0%, the “Hepatotoxicity (acute)” value [2] is reported as 11.3% and the “Hepatotoxicity (time to onset)” value [3] is reported as 2 days - 8 days. For the same compound, the “Hepatotoxicity (mechanism)” value [4] was “Dose-dependant”, the “Hepatotoxicity (moderate)” value [5] was 0 and the “Hepatotoxicity (acute)” value [6] was 1. The “Hepatotoxicity (cytolytic)” value [7] was 0, the “Hepatotoxicity (choleostasis)” value [8] was 0 and the “Hepatotoxicity (severe hepatitis)” value [9] was 1. For the same compound, the “Hepatotoxicity (chronic liver disease)” value [10] was 0, the “Hepatotoxicity (cirrhosis)” value [11] was 0 and the “Hepatotoxicity (granulomatous hepatitis)” value [12] was 0. For the same compound, the “Hepatotoxicity (association with vascular disease)” value [13] was 0, the “Hepatotoxicity (steatosis)” value [14] was 0 and the “Hepatotoxicity (malignant tumour)” value [15] was 0. For the same compound, the “Hepatotoxicity (benign tumour)” value [16] was 0.
For `CC(c1cc2ccccc2s1)N(O)C(N)=O` (stereo not given) [ZILEUTON], the “Hepatotoxicity (moderate)” value [1] was 16.7%, the “Hepatotoxicity (acute)” value [2] was 0% and the “Hepatotoxicity (time to onset)” value [3] was 24 days. For the same compound, the “Hepatotoxicity (mechanism)” value [4] was “Dose-dependant”, the “Hepatotoxicity (moderate)” value [5] was 8 and the “Hepatotoxicity (acute)” value [6] was 2. For the same compound, the “Hepatotoxicity (cytolytic)” value [7] was 1, the “Hepatotoxicity (choleostasis)” value [8] was 0 and the “Hepatotoxicity (severe hepatitis)” value [9] was 0. The “Hepatotoxicity (chronic liver disease)” value [10] was 0, the “Hepatotoxicity (cirrhosis)” value [11] was 0 and the “Hepatotoxicity (granulomatous hepatitis)” value [12] was 0. For the same compound, the “Hepatotoxicity (association with vascular disease)” value [13] was 0, the “Hepatotoxicity (steatosis)” value [14] was 0 and the “Hepatotoxicity (malignant tumour)” value [15] was 0. For the same compound, the “Hepatotoxicity (benign tumour)” value [16] was 0.
For `CC1(C)NC(=O)N(c2ccc([N+](=O)[O-])c(C(F)(F)F)c2)C1=O` [NILUTAMIDE], the “Hepatotoxicity (moderate)” value ([1]; Liver) was 8%, the “Hepatotoxicity (acute)” value ([2]; Liver) was 0% and the “Hepatotoxicity (time to onset)” value [3] was 1 month - 4 months. The “Hepatotoxicity (mechanism)” value ([4]; Liver) was “Reactive metabolite”, the “Hepatotoxicity (moderate)” value [5] was 5 and the “Hepatotoxicity (acute)” value [6] was 5. For the same compound, the “Hepatotoxicity (cytolytic)” value ([7]; Liver) was 4, the “Hepatotoxicity (choleostasis)” value ([8]; Liver) was 0 and the “Hepatotoxicity (severe hepatitis)” value ([9]; Liver) was 4. The “Hepatotoxicity (chronic liver disease)” value [10] was 0, the “Hepatotoxicity (cirrhosis)” value [11] was 0 and the “Hepatotoxicity (granulomatous hepatitis)” value ([12]; Liver) was 0. The “Hepatotoxicity (association with vascular disease)” value [13] was 0, the “Hepatotoxicity (steatosis)” value [14] was 0 and the “Hepatotoxicity (malignant tumour)” value [15] was 0. The “Hepatotoxicity (benign tumour)” value [16] was 0.
In the case of `CN1C(=O)OC(C)(C)C1=O` [TRIMETHADIONE], the “Hepatotoxicity (moderate)” value [1] is reported as 0%, the “Hepatotoxicity (acute)” value [2] is reported as 0% and the “Hepatotoxicity (time to onset)” value [3] is reported as 2 weeks - 1 month. The “Hepatotoxicity (mechanism)” value [4] was “Allergic”, the “Hepatotoxicity (moderate)” value [5] was 1 and the “Hepatotoxicity (acute)” value [6] was 3. For the same compound, the “Hepatotoxicity (cytolytic)” value [7] was 1, the “Hepatotoxicity (choleostasis)” value [8] was 0 and the “Hepatotoxicity (severe hepatitis)” value [9] was 0. For the same compound, the “Hepatotoxicity (chronic liver disease)” value [10] was 0, the “Hepatotoxicity (cirrhosis)” value [11] was 0 and the “Hepatotoxicity (granulomatous hepatitis)” value [12] was 0. For the same compound, the “Hepatotoxicity (association with vascular disease)” value [13] was 0, the “Hepatotoxicity (steatosis)” value [14] was 0 and the “Hepatotoxicity (malignant tumour)” value [15] was 0. The “Hepatotoxicity (benign tumour)” value [16] was 0.
